# Assay results reported in US11505558B1, “Antiviral heterocyclic compounds” (Enanta Pharmaceuticals, Inc., priority 2019, dated 2022).
# Test system: genotype A, "Long" strain RSV
# Experiment: RSV-A assay (CPE, ATPlite readout in Hep-2 cells)
# Assay type: cell-based
# Details: human respiratory syncytial virus, HEp-2, Hep-2 cells, genotype A "Long" strain RSV, MOI 0.1; read-out: Human RSV-A (“Long” strain) EC50
# Summary of the method: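 Hep-2 cells (8,000/well) received 2-fold serial compound dilutions in duplicate and RSV Long strain at MOI 0.1. After 5 days' incubation, cell health was read as ATP by ATPlite luminescence, with virus-only and uninfected controls defining max and minimum CPE; EC50 reported.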
row,Compound,EC50 [nM]
1,C[C@]1(C(N)=O)COc2c1cc([C@@](O)(CNC(=O)c1ccc3ncc(C(F)(F)F)cc3c1)C(F)(F)F)nc2-c1ccc(F)cc1 [Example 651],< 200
2,C[C@]1(C(N)=O)COc2c1cc([C@@](O)(CNC(=O)c1cc(Nc3ccncn3)c3ncccc3c1)C(F)(F)F)nc2-c1ccc(F)cc1 [Example 343],< 200
3,C[C@]1(C(N)=O)COc2c1cc([C@@](O)(CNC(=O)c1ccc(N3CCC3)c(OC3CC3)c1)C(F)(F)F)nc2-c1ccc(F)cc1 [Example 159],< 200
4,COc1cc(C(=O)NC[C@](O)(c2cc3c(c(-c4ccc(F)cc4)n2)OC[C@]3(C)C(N)=O)C(F)(F)F)ccc1-c1conc1C [Example 186],< 200
5,C[C@@H](O)COc1ccc2cc(C(=O)NC[C@](O)(c3cc4c(c(-c5ccc(F)cc5)n3)OC[C@]4(C)C(N)=O)C(F)(F)F)cc(OC3CC3)c2n1 [Example 405],> 200
6,C[C@]1(C(N)=O)COc2c1cc([C@@](O)(CNC(=O)c1cc(OCCF)c3ncccc3c1)C(F)(F)F)nc2-c1ccc(F)cc1 [Example 277],< 200
7,Cn1cc2cc(C(=O)NC[C@](O)(c3cc4c(c(-c5ccc(F)cc5)n3)OC[C@]4(C)C(N)=O)C(F)(F)F)cc(F)c2n1 [Example 654],< 200
8,COc1cccc(C(=O)NC[C@](O)(c2cc3c(c(-c4ccc(F)cc4)n2)OC[C@]3(C)C(N)=O)C(F)(F)F)c1 [Example 309],> 200
9,Cn1c(=O)n(C)c2cc(C(=O)NC[C@](O)(c3cc4c(c(-c5ccc(F)cc5)n3)OC[C@]4(C)C(N)=O)C(F)(F)F)ccc21 [Example 322],> 200
10,C[C@]1(C(N)=O)COc2c1cc([C@@](O)(CNC(=O)c1cc(Nc3ncc(F)cn3)c3ncccc3c1)C(F)(F)F)nc2-c1ccc(F)cc1 [Example 349],< 200
11,C[C@]1(C(N)=O)COc2c1cc([C@@](O)(CNC(=O)c1ccc(OC3CC3)c(-c3ccncc3C(F)(F)F)c1)C(F)(F)F)nc2-c1ccc(F)cc1 [Example 113],> 200
12,COc1cc(C(=O)NC[C@](O)(c2cc3c(c(-c4ccc(F)cc4)n2)OC[C@]3(C)C(N)=O)C(F)(F)F)ccc1C#N [Example 318],> 200
13,CCc1ccc2cc(C(=O)NC[C@](O)(c3cc4c(c(-c5ccc(F)cc5)n3)OC[C@]4(C)C(N)=O)C(F)(F)F)cc(OC)c2n1 [Example 273],< 200
14,Cc1noc(C)c1-c1ccc(C(=O)NC[C@](O)(c2cc3c(c(-c4ccc(F)cc4)n2)OC[C@]3(C)C(N)=O)C(F)(F)F)cc1OC1CC1 [Example 172],> 200
15,C[C@]1(C(N)=O)COc2c1cc([C@@](O)(CNC(=O)c1cc(NC(=O)c3cnn[nH]3)c3ncccc3c1)C(F)(F)F)nc2-c1ccc(F)cc1 [Example 404],> 200
16,C[C@@H](O)COc1ccc(C(=O)NC[C@](O)(c2cc3c(c(-c4ccc(F)cc4)n2)OC[C@]3(C)C(N)=O)C(F)(F)F)cc1-c1cncnc1 [Example 203],> 200
17,Cn1cnc2cc(C(=O)NC[C@](O)(c3cc4c(c(-c5ccc(F)cc5)n3)OC[C@]4(C)C(N)=O)C(F)(F)F)ccc21 [Example 333],> 200
18,C[C@]1(C(=O)N2CC(O)C2)COc2c1cc([C@@](O)(CNC(=O)c1cc(OC3CC3)c3ncccc3c1)C(F)(F)F)nc2-c1ccc(F)cc1 [Example 470],> 200

row,Compound,EC50 [nM]
1,Cc1ccc(-c2ccc(C(=O)NC[C@](O)(c3cc4c(c(-c5ccc(F)cc5)n3)OC[C@]4(C)C(N)=O)C(F)(F)F)cc2OC2CC2)cn1 [Example 146],> 200
2,CC(C)(O)CNC(=O)[C@@]1(C)COc2c1cc([C@@](O)(CNC(=O)c1cc(OCC(N)=O)c3ncccc3c1)C(F)(F)F)nc2-c1ccc(F)cc1 [Example 506],< 200
3,COc1cc(C(=O)NC[C@](O)(c2cc3c(c(-c4ccc(F)cc4)n2)OC[C@]3(C)C(N)=O)C(F)(F)F)ccc1OCCN1CCCCC1 [Example 189],> 200
4,Cn1ncc2cc(C(=O)NC[C@](O)(c3cc4c(c(-c5ccc(F)cc5)n3)OC[C@]4(C)C(N)=O)C(F)(F)F)ccc21 [Example 591],< 200
5,COc1cc(C(=O)NC[C@](O)(c2cc3c(c(C#Cc4ccccc4)n2)OC[C@]3(C)C(N)=O)C(F)(F)F)ccc1OC1CC1 [Example 515],> 200
6,C[C@]1(CNCC2CC2)COc2c1cc([C@@](O)(CNC(=O)c1ccc3[nH]c(=O)[nH]c3c1)C(F)(F)F)nc2-c1ccc(F)cc1 [Example 40],> 200
7,C[C@]1(C(N)=O)COc2c1cc([C@@](O)(CNC(=O)c1ccc(C3=CCOCC3)c(OC3CC3)c1)C(F)(F)F)nc2-c1ccc(F)cc1 [Example 178],> 200
8,COc1cc(C(=O)NC[C@](O)(c2cc3c(c(-c4ccc(F)cc4)n2)OC[C@]3(C)C(N)=O)C(F)(F)F)cc2cccnc12 [Example 28],< 200
9,COc1cc(C(=O)NC[C@](O)(c2cc3c(c(-c4ccc(F)c(Cl)c4)n2)OC[C@]3(C)C(N)=O)C(F)(F)F)cc2cn(C)nc12 [Example 428],< 200
10,C[C@]1(C(N)=O)COc2c1cc([C@@](O)(CNC(=O)c1ccc3nc(N)sc3c1)C(F)(F)F)nc2-c1ccc(F)c(Cl)c1 [Example 432],< 200
11,C[C@]1(C(N)=O)COc2c1cc([C@@](O)(CNC(=O)c1cn3ncccc3n1)C(F)(F)F)nc2-c1ccc(F)cc1 [Example 307],> 200
12,C[C@]1(C(N)=O)COc2c1cc([C@@](O)(CNC(=O)c1cc3ccccc3cn1)C(F)(F)F)nc2-c1ccc(F)cc1 [Example 236],> 200
13,Cn1c(=O)[nH]c2ccc(C(=O)NC[C@](O)(c3cc4c(c(-c5ccc(F)cc5)n3)OC[C@]4(C)C(N)=O)C(F)(F)F)cc21 [Example 326],> 200
14,C[C@]1(C(N)=O)COc2c1cc([C@@](O)(CNC(=O)c1cnccn1)C(F)(F)F)nc2-c1ccc(F)cc1 [Example 299],> 200
15,C[C@]1(C(N)=O)COc2c1cc([C@@](O)(CNC(=O)c1ccc(-c3cncs3)c(OC3CC3)c1)C(F)(F)F)nc2-c1ccc(F)cc1 [Example 175],< 200
16,COc1cc(C(=O)NC[C@](O)(c2cc3c(c(-c4ccc(F)cc4)n2)OC[C@]3(C)C(=O)NC23CC(F)(C2)C3)C(F)(F)F)cc2cccnc12 [Example 55],< 200
17,COc1cc(C(=O)NC[C@](O)(c2cc3c(c(-c4ccc(F)cc4)n2)OC[C@]3(C)C(N)=O)C(F)(F)F)ccc1-c1cnoc1 [Example 184],< 200
18,COc1cc(Nc2cc(C(=O)NC[C@](O)(c3cc4c(c(-c5ccc(F)cc5)n3)OC[C@]4(C)C(N)=O)C(F)(F)F)cc3cccnc23)nc(OC)n1 [Example 345],> 200

# The remaining lines, values ahead:
row,EC50 [nM],Compound
1,< 200,CNc1nc2ccc(C(=O)NC[C@](O)(c3cc4c(c(-c5ccc(F)cc5)n3)OC[C@]4(C)C(N)=O)C(F)(F)F)cc2s1 [Example 439]
2,< 200,COc1cc(C(=O)NC[C@](O)(c2cc3c(c(-c4ccc(F)cc4)n2)OCC3(F)C(N)=O)C(F)(F)F)cc2cc(C(F)(F)F)cnc12 (some centres unmarked) [Example 671]
3,< 200,C[C@]1(C(N)=O)COc2c1cc([C@@](O)(CNC(=O)c1ccc(OC3CC3)c(-c3cncs3)c1)C(F)(F)F)nc2-c1ccc(F)cc1 [Example 129]
4,< 200,C[C@]1(C(N)=O)COc2c1cc([C@@](O)(CNC(=O)c1ccc(OC3CC3)c(-c3ccccc3)c1)C(F)(F)F)nc2-c1ccc(F)cc1 [Example 77]
5,> 200,COc1ccc2[nH]nc(C(=O)NC[C@](O)(c3cc4c(c(-c5ccc(F)cc5)n3)OC[C@]4(C)C(N)=O)C(F)(F)F)c2c1 [Example 586]
6,< 200,Cc1cnc2c(NC(=O)c3ncc(C)o3)cc(C(=O)NC[C@](O)(c3cc4c(c(-c5ccc(F)cc5)n3)OC[C@]4(C)C(N)=O)C(F)(F)F)cc2c1 [Example 630]
7,< 200,C[C@]1(C(N)=O)COc2c1cc([C@@](O)(CNC(=O)c1cc(OC(F)F)c3ncccc3c1)C(F)(F)F)nc2-c1ccc(F)cc1 [Example 59]
8,> 200,C[C@]1(C(N)=O)COc2c1cc([C@@](O)(CNC(=O)c1cc(OCC(=O)NC[C@@H](O)CO)c3ncccc3c1)C(F)(F)F)nc2-c1ccc(F)cc1 [Example 379]
9,< 200,C[C@]1(C(N)=O)COc2c1cc([C@@](O)(CNC(=O)c1cc(OCC(N)=O)c3ncccc3c1)C(F)(F)F)nc2-c1ccc(F)c(Cl)c1 [Example 382]
10,> 200,C[C@]1(C(N)=O)COc2c1cc([C@@](O)(CNC(=O)c1cc(Oc3ccccn3)c3ncccc3c1)C(F)(F)F)nc2-c1ccc(F)cc1 [Example 386]
11,< 200,Cc1cnc2c(S(C)(=O)=O)cc(C(=O)NC[C@](O)(c3cc4c(c(-c5ccc(F)cc5)n3)OC[C@]4(C)C(N)=O)C(F)(F)F)cc2c1 [Example 648]
12,< 200,CC(C)(O)CNC(=O)[C@@]1(C)COc2c1cc([C@@](O)(CNC(=O)c1ccc3nc(N)oc3c1)C(F)(F)F)nc2-c1ccc(F)cc1 [Example 498]
13,< 200,COc1cc(C(=O)NC[C@](O)(c2cc3c(c(-c4ccc(F)cc4)n2)OC[C@]3(C)CNC2CC2)C(F)(F)F)cc2cccnc12 [Example 23]
14,> 200,CC(C)CCNC(=O)[C@@]1(C)COc2c1cc([C@@](O)(CNC(=O)c1cc(OC3CC3)c3ncccc3c1)C(F)(F)F)nc2-c1ccc(F)cc1 [Example 472]
15,> 200,C[C@]1(C(N)=O)COc2c1cc([C@@](O)(CNC(=O)c1cc3c(F)cccc3[nH]1)C(F)(F)F)nc2-c1ccc(F)cc1 [Example 601]
16,> 200,CC(C)(O)c1ccc2cc(C(=O)NC[C@](O)(c3cc4c(c(-c5ccc(F)cc5)n3)OC[C@]4(C)C(N)=O)C(F)(F)F)cc(OC3CC3)c2n1 [Example 407]
17,< 200,C[C@]1(C(N)=O)COc2c1cc([C@@](O)(CNC(=O)c1cc3ccc(Cl)cc3[nH]1)C(F)(F)F)nc2-c1ccc(F)cc1 [Example 605]
18,< 200,C[C@]1(C(=O)N2CCC(=O)C2)COc2c1cc([C@@](O)(CNC(=O)c1cc(OC3CC3)c3ncccc3c1)C(F)(F)F)nc2-c1ccc(F)cc1 [Example 556]
19,< 200,C[C@]1(C(N)=O)COc2c1cc([C@@](O)(CNC(=O)c1ccc(OC3CC3)c(N3CCOCC3)c1)C(F)(F)F)nc2-c1ccc(F)cc1 [Example 133]
20,< 200,COc1ccc(C(=O)NC[C@](O)(c2cc3c(c(-c4ccc(F)cc4)n2)OC[C@]3(C)C(N)=O)C(F)(F)F)cc1Cl [Example 330]
